Measurements: patent publication US20090247644A1, “MEMANTINE FORMULATIONS” (FOREST LABORATORIES HOLDINGS LIMITED, priority 2008, published 2009)
Structures can show the parent of a compound that is named as a salt.

What was measured:
Type in all cases: physicochemical
[1] = Flowability, Jenike and Johanson Sifting Segregation tester (time for 200 g to fall through hopper orifice); conditions: 200 g material, hydrochloride
Description: The flowability of the equant-shaped crystals of memantine was measured using a Jenike and Johanson […] Segregation tester (Jenike and Johanson, Tyngsboro, Mass.). The time taken for 200 g of material to fall through the circular orifice of the hopper was measured. Two different hoppers were used: a shallow angle cone (Hopper A, 35° from horizontal) and a steep angle cone (Hopper B, 75° from horizontal). […] See, ASTM Standard D6941-03, and A. Alexander et al., Pharmaceutical Technology, Yearbook 2000, pp. 6-21.

[2] = Angle of repose, Hosakawa Micron powder tester; conditions: hydrochloride
Description: For pharmaceutical powders, a lower angle of repose value indicates better flow characteristics. The angle of repose was measured using a Hosakawa Micron powder tester, Model PT-N (Hosokawa Micron Powder systems, Summit, N.J.) using the instructions provided by the vendor. Also see Pharmaceutical Dosage Forms, Tablets, Volume 1, Herbert A. Lieberman, Leon Lachman, Joseph B. Schwartz, 1989, 2nd Ed.

[3] = Bulk density and tap density, Varian Tapped Density tester; conditions: hydrochloride
Description: Bulk Density and Apparent Density after Tamping (Tap Density)
The bulk density and apparent density were measured using a Varian Tapped Density tester (Varian Inc.,) using the instructions provided by the vendor. Also see USP 29 (Tap-Bulk-Density).

[4] = Particle size distribution by laser diffraction; conditions: equant: Helos BF with Rodos; needle: Mastersizer 2000; hydrochloride
Description: The particle size distribution (average d90, d50 and d10 values) of the equant-shaped crystals of memantine was measured by Laser Diffraction technique using a Helos BF with Rodos instrument (Sympatec Inc, Lawrenceville, N.J.). The particle size distribution of the needle-shaped crystals of memantine was measured using a Mastersizer 2000 instrument (Malvern Instruments Limited, Worcestershire, UK).

[5] = Aspect ratio by scanning electron microscopy; conditions: ratio of maximum length to minimum width; hydrochloride
Text: The aspect ratio refers to the ratio of the maximum length of a crystal to its minimum width. At an aspect ratio of 1, a crystal has an isometric crystal habit. With the aspect ratio decreasing below 1, the crystal habit becomes more and more plate-like. In contrast, when the aspect ratio increases more and more above 1, the crystal approaches a needle-like crystal habit. In accordance with the present invention, cubic-shaped crystals of memantine hydrochloride have an aspect ratio of preferably below about 5, such as, below about 3 (3.0), e.g., below about 2 (2.0). The lower limit of the aspect ratio is not critical. The aspect ratio is determined by means of scanning electron microscopy (SEM). The sample is spread onto a pure aluminum support and subsequently sputter-coated with a thin layer of Pd/Au (thickness in the nanometer range; sputter coater SCD 030 (Balzers)). Using a JSM 6400 Scanning Electron Microscope (JEOL, Japan) at an acceleration voltage of 20 keV and a working distance of 15 mm, SEM images are taken at 150-fold magnification. Electronic filtering and thresholding is used to improve the separation of particles in binary images from the background. For image analysis, ANALYSIS software version 5.0 (SIS, Muenster, Germany) is used. […]

[6] = Hopper A (shallow angle cone, 35° from horizontal)
[7] = Hopper B (steep angle cone, 75° from horizontal)

Flowability [1, 6] | Flowability ([1]; Hopper A (shallow angle cone, 35° from horizontal), listed as needle-shaped crystals) | Flowability [1, 7] | Flowability ([1]; Hopper B (steep angle cone, 75° from horizontal), listed as needle-shaped crystals) | Angle of Repose [2] [°] | Bulk Density [3] [g/cc] | Compressibility Index [3] | Tap Density [3] [g/cc] | PSD d10 [4] [μm] | PSD d50 [4] [μm] | PSD d90 [4] [μm] | Aspect Ratio [5] | Flowability ([1]; Hopper A (shallow angle cone, 35° from horizontal), listed as equant-shaped crystals) | Flowability ([1]; Hopper B (steep angle cone, 75° from horizontal), listed as equant-shaped crystals) | SMILES
Does not flow | do not flow | Does not flow | do not flow | 66.2 | 0.30 | 40 | 0.50 | 18.8 | 113.8 | 1229.4 | 11.4 |  |  | CC12CC3CC(C)(C1)CC(N)(C3)C2 [Needle-shaped crystals of Memantine HCl, memantine hydrochloride]
38.3 g/s |  | 13.6 g/s |  | 43.1 | 0.51 | 16 | 0.61 | 10 | 205 | 376 | 1.6 | about 38 g/s | about 14 g/s | CC12CC3CC(C)(C1)CC(N)(C3)C2 [Equant-shaped crystals of Memantine HCl, memantine hydrochloride]
